Article PMC5064022, “KCNE1 induces fenestration in the Kv7.1/KCNE1 channel complex that allows for highly specific pharmacological targeting” (Nature Communications, 2016)

What was measured:
Kv7.1/KCNE2–5 = assay: TEVC, Kv7.1 co-expressed with other KCNE isoforms; format: cell-based; settings: 1 μM
Kv1.5 = test system: T1, Kv1.5; assay: TEVC, Kv1.5 channels; format: cell-based; settings: 1 μM
T1 construct: expressed in transfected cells

Kv7.2 = test system: T2, Kv7.2; assay: TEVC, Kv7.2 channels; format: cell-based; settings: 1 μM
T2 construct: expressed in transfected cells

homomeric Kv7.1 = test system: T3, homomeric Kv7.1; assay: TEVC, homomeric Kv7.1 channels in oocytes; format: cell-based, human
T3 construct: expressed in transfected cells; host or cells: Xenopus oocytes, cRNA injected
Protocol: Figure 1 AC-1 inhibits Kv7.1 channels only in the presence of KCNE1. (a) Structure of adamantane compound AC-1. (b) Concentration-response relationship for inhibition of Kv7.1/KCNE channel currents by AC-1. Kv7.1/KCNE1 channel currents were activated by repetitive 7 s pulses to +40 mV applied from a holding potential of −80 mV. Inhibition was determined as percent change in current amplitude at the end of the depolarizing test pulse to +40 mV. Data were fitted (smooth curve) to the Hill equation (n=5–70,±s.e.m.). (c) The inhibitory effect of different AC-1 concentrations on Kv7.1/KCNE1 channels was determined by repetitive 7 s pulses to +40 mV applied from a holding potential of −80 mV. […] Inhibition of current was determined as described above and plotted against the amount (in ng) of cRNA injected into individual oocytes. […]
Template cDNAs (wildtype or mutant human Kv7.1 in pSGEM, wildtype human KCNE1 in pSP64) were linearized with a suitable restriction enzyme (Nhe I/pSGEM, Eco RI/pSP64). cRNA was synthesized from 1 μg linearized cDNA by in vitro transcription (mMessage mMachine T7 or SP6 kit, Ambion, Life Technologies Darmstadt, Germany). cRNA concentrations were determined by photometry (Nanodrop, Peqlab, Erlangen, Germany) and cRNA quality was checked by agarose gel electrophoresis. […]

Which “sensitivity of Kv7.1/KCNE2-5 currents” value (Kv7.1/KCNE2–5) does the source give for CC(C)(Oc1ccc(Cl)cc1)C(=O)NC1C2CC3CC1CC(NS(C)(=O)=O)(C3)C2 (centres unmarked) [AC-1, 2-(4-chlorophenoxy)-2-methyl-N-[5-[(methylsulfonyl)amino]tricyclo[3.3.1.13,7]dec-2-yl]-propanamide] here?
Its value is “insensitive”.

What about the “effect on Kv1.5” value (Kv1.5) of the same compound?
The value was “does not affect”.

What about the “effect on Kv7.2” value (Kv7.2) of the same compound?
Its value is “does not affect”.

What about the “effect on homomeric Kv7.1” value (homomeric Kv7.1; 1 μM) of the same compound?
The value was “does not affect”.

What about the “effect of different concentrations on Kv7.1 homotetramers” value (homomeric Kv7.1; different concentrations, up to 10 μM, +40 mV) of the same compound?
Its value is “Lack of effect”.
